Experimental data as given in patent publication US20200371122A1, “BIOMARKER FOR SENESCENT CELLS” (Buck Institute for Research on Aging, priority 2017, published 2020).

Assays:
[1] = tested on: C57BL6/J and p16-3MR mice injured with bleomycin; assay: Bleomycin-induced pulmonary fibrosis in mice; assay type: in vivo, mouse
Method: RNA was extracted from cells or tissues using commercially available kits (Isolate II—Bioline for cells; Direct-zol—Zymo for tissues) according to the manufacturer's instructions. cDNA synthesis was performed using a High Capacity cDNA Reverse Transcription Kit (Thermo Fisher) according to the manufacturer's instructions. Quantitative PCR was performed on a LightCycler 480 II (Roche) using primers and probes designed for the Universal Probe Library. Primers and probes used for human transcripts were ACTB: 5′-CCAACCGCGAGAAGATGA (SEQ ID NO:1), 5′-TCCATCACGATGCCAGTG (SEQ ID NO:2), Probe #64; TUBA: 5′-cttcgtctccgccatcag (SEQ ID NO:3), 5′-ttgccaatctggacacca (SEQ ID NO:4), Probe #58; ALOX5: 5′-[…] (SEQ ID NO:5), 5′-[…] (SEQ ID NO:6), Probe #64; ALOX5AP: 5′-ggtctgcggggctacttt (SEQ ID NO:7), 5′-[…] (SEQ ID NO:8), Probe #18; ALOX12: 5′-[…] (SEQ ID NO:9), 5′-agccaggtcgtcaggag (SEQ ID NO:10), Probe #32; ALOX15: 5′-[…] (SEQ ID NO:11), 5′-[…] (SEQ ID NO:12), Probe #76; ALOX15B: 5′-[…] (SEQ ID NO:13), 5′-actgggaggcgaagaagg (SEQ ID NO:14), Probe #51; AKR1C1: 5′-catgcctgtcctgggattt (SEQ ID NO:15), 5′-[…] (SEQ ID NO:16), Probe #49; AKR1C2: 5′-ctatgcgcctgcagaggt (SEQ ID NO:17), 5′-[…] (SEQ ID NO:18), Probe #31; AKR1C3: 5′-[…] (SEQ ID NO:19), 5′-[…] (SEQ ID NO:20), Probe #78; CYSLTR2: 5′-[…] (SEQ ID NO:21), 5′-[…] (SEQ ID NO:22), Probe #18; DPEP1: 5′-gacgtcctgaggctggtg (SEQ ID NO:23), 5′-[…] (SEQ ID NO:24), Probe #9 (SEQ ID NO:25), ELOVL2: 5′-[…] (SEQ ID NO:26), 5′-[…] (SEQ ID NO:27), Probe #53; ELOVL4: 5′-catttggcccatggattc (SEQ ID NO:28), 5′-[…] (SEQ ID NO:29), Probe #31; ELOVL5: 5′-cccttccatgcgtccata (SEQ ID NO:30), 5′-[…] (SEQ ID NO:31), Probe #31; EPHX2: 5′-ttctgctggacaccctgaa (SEQ ID NO:32), 5′-[…] (SEQ ID NO:33), Probe #45; GPX4: 5′-ttcccgtgtaaccagttcg (SEQ ID NO:34), 5′-[…] (SEQ ID NO:35), Probe #36; LTA4H: 5′-ctgctctcacggtccagtc (SEQ ID NO:36), 5′-[…] (SEQ ID NO:37), Probe #64; LTBR2: 5′-[…] (SEQ ID NO:38), 5′-[…] (SEQ ID NO:39), Probe #33; LTC4S: 5′-[…] (SEQ ID NO:40), 5′-[…] (SEQ ID NO:41), Probe #18; PTGDS: 5′-[…] (SEQ ID NO:42), 5′-[…] (SEQ ID NO:43), Probe #36; PTGES: 5′-agagatgcctgcccacag (SEQ ID NO:44), 5′-tggccaccacgtacatctt (SEQ ID NO:45), Probe #4; PTGES2: 5′-[…] (SEQ ID NO:46), 5′-[…] (SEQ ID NO:47), Probe #49; PTGES3 (SEQ ID NO:48), 5′-[…] (SEQ ID NO:49), 5′-[…] (SEQ ID NO:50), Probe #48; PTGIS: 5′-[…] (SEQ ID NO:51), 5′-[…] (SEQ ID NO:52), Probe #45; PTGR1: 5′-atgatggggcagcaagtg (SEQ ID NO:53), 5′-cccatcagaaatggagtgc (SEQ ID NO:54), Probe #64; PTGS1: 5′-[…] (SEQ ID NO:55), 5′-gtggtggtccatgttcctg (SEQ ID NO:56), Probe #81; PTGS2: 5′-gatccccagggctcaaac (SEQ ID NO:57), 5′-[…] (SEQ ID NO:58), Probe #61; TBXAS1: 5′-[…] (SEQ ID NO:59), 5′-tgcctcccgtgtgaatct (SEQ ID NO:60), Probe #73; AREG: 5′-[…] (SEQ ID NO:61), 5′-[…] (SEQ ID NO:62), Probe #73; CCL2: 5′-AGTCTCTGCCGCCCTTCT (SEQ ID NO:63), 5′-GTGACTGGGGCATTGATTG (SEQ ID NO:64), Probe #40; CCL27: 5′-[…] (SEQ ID NO:65), 5′-gctgggtggcagtaggaat (SEQ ID NO:66), Probe #18; CXCL1: 5′-[…] (SEQ ID NO:67), 5′-[…] (SEQ ID NO:68), Probe #52; HGF: 5′-[…] (SEQ ID NO:69), 5′-[…] (SEQ ID NO:70), Probe #49; ILIA: 5′-[…] (SEQ ID NO:71), 5′-[…] (SEQ ID NO:72), Probe #6; IL1B: 5′-[…] (SEQ ID NO:73), 5′-[…] (SEQ ID NO:74), Probe #78; IL6: 5′-[…] (SEQ ID NO:75), 5′-gaaggcagcaggcaacac (SEQ ID NO:76), Probe #45; IL8: 5′-[…] (SEQ ID NO:77), 5′-atggttccttccggtggt (SEQ ID NO:78), Probe #72; IL10: 5′-[…] (SEQ ID NO:79), 5′-[…] (SEQ ID NO:80), Probe #67; MMP3: 5′-[…] (SEQ ID NO:81), 5′-[…] (SEQ ID NO:82), Probe #36; PDGFA: 5′-[…] (SEQ ID NO:83), 5′-[…] […]

[2] = tested on: C57BL6/J and p16-3MR mice injured with bleomycin; assay: Bleomycin-induced pulmonary fibrosis in mice; assay type: in vivo, mouse; remark: listed apart in the source
IL-6 secretion = assay: IL-6 ELISA on non-senescent cells treated with prostaglandins; assay type: cell-based, human; conditions: 10 μM, 10 days
Method: Human fetal lung fibroblasts (IMR-90) were cultured in Dulbecco's modified eagle medium (DMEM) supplemented with 10% FBS and penicillin/streptomycin. LL 29 (AnHa) cells were obtained from the ATCC and growth to confluence using the ATCC protocol, but were subcultured as described for IMR-90 before initiation of all experiments. Quiescence was induced by replacing culture media with media containing 0.2% FBS. MCF-7 and MDA-MB-231 breast cancer cells were cultured in RPMI supplemented with 10% FBS and penicillin/streptomycin. All cells were cultured at 3% O2, and used between 25 and 40 population doublings. All cells were mycoplasma free.
3×10^4 cells in 12-well plates were treated as indicated in the text, and cultured in 0.5-1 ml serum-free DMEM for 24 hr. CM were collected and clarified at 2,000×g for 10 min. Supernatants were transferred to a tube; cells were trypsinized and counted. CM (2.5 μl) were analyzed by bead-based ELISAs (AlphaLISA, Perkin-Elmer) as instructed by the manufacturer and normalized to cell number.

[3] = bleomycin-treated animals, day 14, ELISA

| Structure (SMILES) | RNA levels of p16INK4a and p21WAF1 in lungs ([1]; 14 days after bleomycin injury) | collagen expression (Col3a1 and Col4a1) ([1]; bleomycin-injured mice, 21 days after injury as printed) | mRNA levels of Alox5, Ltc4s, Ptgs2, Ptgds, and Ptges in lungs ([1]; bleomycin-injured mice, day 14) | histological staining of lungs with picrosirius red ([2]; 21 days after bleomycin) | collagen content (hydroxyproline) ([2]; 21 days after injury) | cysteinyl leukotrienes in bronchioalveolar lavage fluid (BALF) [2, 3] | prostaglandin E2 in bronchioalveolar lavage fluid (BALF) [2, 3] | phosphorylation of cPLA2 ([2]; bleomycin-treated mice, lung, day 14) | IL-6 secretion (IL-6 secretion) |
| --- | --- | --- | --- | --- | --- | --- | --- | --- | --- |
| CC1(C)CCC(c2ccc(Cl)cc2)=C(CN2CCN(c3ccc(C(=O)NS(=O)(=O)c4ccc(N[C@H](CCN5CCOCC5)CSc5ccccc5)c(S(=O)(=O)C(F)(F)F)c4)cc3)CC2)C1 [ABT-263, 4-[4-[[2-(4-chlorophenyl)-5,5-dimethylcyclohexen-1-yl]methyl]piperazin-1--yl]-N-[4-[[(2R)-4-morpholin-4-yl-1-phenylsulfanylbutan-2-yl]amino]-3-(tri-fluoromethylsulfonyl)phenyl]sulfonylbenzamide] | significantly attenuated | reduced | lowered these levels to those of PBS-treated animals | attenuation of the fibrotic response | reduced | reduced | reduced | lowered |  |
| CCCCC[C@H](O)/C=C/[C@H]1C=CC(=O)[C@@H]1C/C=C\CCCC(=O)O [PGA2] |  |  |  |  |  |  |  |  | elevated |
